The test system of assay [1] is A172 cells. In words: DIA proteomics in A172 cells. Format: cell-based, Homo sapiens. Conditions: 100 nM, 24 h. Here is the method: Cells were seeded in 6‐well plates at 1 × 10⁶ cells well^−1 and treated with 100 nM KG‐FP‐003 (n = 3). After 24 h incubation, cells were harvested, washed with ice‐cold PBS, and stored at −80 °C. Cell pellets were lysed in 4 volumes of lysis buffer (1% SDS, 1% protease inhibitor cocktail) followed by 3 min sonication on ice. After centrifugation (12 000 g, 10 min, 4 °C), supernatants were collected for BCA protein quantification. Proteins were reduced with 5 mM DTT (56 °C, 30 min), alkylated with 11 mM iodoacetamide (RT, dark, 15 min), and diluted with 200 mM TEAB to reduce urea concentration below 2 M. Trypsin digestion (1:50 enzyme‐to‐protein ratio) was performed at 37 °C overnight followed by additional 4 h digestion. Peptides were desalted using Strata‐X SPE columns. […] MS analysis was performed on a timsTOF Pro mass spectrometer in dia‐PASEF mode (ESI voltage: 1.75 kV; scan range: 300–1500 m z^−1). DIA data were processed using DIA‐NN (v1.8) against the Homo_sapiens_9606_SP_20 231 220.fasta database (20429 entries) with reversed decoys, using trypsin as the cleavage enzyme. Fixed modifications included N‐terminal methionine excision and carbamidomethylation of cysteine, with FDR set at <1%.

The test system of assay [2] is TEAD1/3, TAZ. Nature of the assay: Immunoblot in A172 cells. Format: cell-based. Conditions: 24 h. The protocol:
(§1) Immunoblotting was carried out as previously described.^[ [29] ^] Cells were seeded in 6‐well plates (Yeasen, #84011ES50) at a density of 1 million cells per well. The following day, cells were treated with compounds at the required concentrations, with the DMSO concentration kept below 0.4‰ to prevent toxic effects on the cells. The collected cell pellets were washed three times with PBS (Meilunbio, #MA0015) and resuspended in 120 µL of RIPA lysis buffer (Meilunbio, #MA0151) containing 1% protease inhibitor (Meilunbio, #MB2678‐2). The cells were then sonicated on ice and centrifuged at 12 000 rpm for 15 min at 4 °C to remove cellular debris. Protein concentrations were determined using the BCA Protein Quantification Kit (Meilunbio, #MA0082‐1). The protein samples were normalized, boiled at 99 °C for 10 min, and then subjected to electrophoresis on a 10% SDS‐PAGE gel. The separated protein bands were transferred to nitrocellulose membranes, blocked with TBST containing 5% BSA, and incubated with the indicated primary antibodies. Finally, the blots were imaged using an Amersham Typhoon NIR imager.

Assay [3] concerns ES2 cells. Nature of the assay: Cell viability assay (CTG, 72 h) ES2. Format: cell-based. As to conditions: Homo sapiens, ES-2, 72 h, 3-day compound treatment. The protocol: (§2) Cells were seeded at a density of 1000 cells per well in 96‐well flat‐bottomed cell culture plates and cultured overnight at 37 °C with 5% CO2 to allow for cell attachment. The following day, different concentrations of compounds were added using an I‐DOT dispenser. After 72 h, 25 µL of CellTiter‐Meiluncell Luminescent Cell Viability Reagent (Meilunbio, #PWL111‐2) was added and incubated for 15 min at room temperature. Luminescence signals were then measured using an Envision plate reader (Revvity). Data were analyzed using GraphPad Prism 9.5 software.^[ [30] ^]

The subject of assay [4] is MSTO-211H cells. Nature of the assay: Cell viability assay (CTG, 72 h) MSTO-211H. Conditions: Homo sapiens. Format: cell-based. Here is the method: as §2
Assay [5] relates to CTGF, ANKRD1, NPPB, PTX3 expression. In words: RT-qPCR in A172 cells incl. washout. As to conditions: 6 h treatment, 18 h. In kind it is cell-based.
Description: Cells were seeded in 6‐well plates at a density of 1 million cells per well. The following day, different concentrations of compounds were added, and cells were collected after 24 h. For wash‐out experiments, cells were pre‐treated with compounds at indicated concentrations for 6 h, then cells were washed three times with PBS, and an equal volume of complete medium without compounds was added and incubated for another 18 h.
RNA was isolated and purified from the samples using the EZ‐10 Rotary Column Total RNA Isolation Kit (Sangon Biotech, B615012). After measuring the RNA concentration, 200 ng of purified RNA was used for genomic DNA removal and reverse transcription to cDNA with the HiScript III 1st Strand cDNA Synthesis Kit (+DNA wiper) (Vazyme, R312‐02). The resulting cDNA was then prepared into a reaction mix according to the ChamQ SYBR qPCR Mix (Vazyme, #q711‐02). Real‐time PCR analysis was performed using a QuantStudio 6 Pro real‐time PCR system (Thermo Fisher Scientific). Relative gene expression was calculated using the 2‐∆∆CT method.
The target in assay [6] is T1, TEAD1 (Homo sapiens, UniProt P28347+Q96SW2).
T1 construct: endogenous in cells; host or cells: NCI-H1299 (TEAD1-mNeonGreen knock-in)
In words: Immunoblot of TEAD1 degradation in TEAD1-mNeonGreen fusion NCI-H1299 cells. Format: cell-based. Here is the method:
as §1
(In general: A western blot detects proteins with antibodies after separation by electrophoresis.)

Assay [7] concerns KLE cells. In words: Cell viability assay (CTG, 72 h) KLE. Format: cell-based. Conditions: Homo sapiens, KLE, 72 h, 3-day compound treatment. Here is the method: as §2
Assay [8] relates to A172 cells. In words: Cell viability assay (CTG, 72 h) A172. In kind it is cell-based. Conditions: Homo sapiens, A 172, 72 h, 3-day compound treatment. The protocol: as §2
Assay [9] has as its target T2, TEAD1 (Homo sapiens, UniProt P28347). Nature of the assay: HiBiT degradation assay, HEK293T HiBiT-TEAD1. In kind it is cell-based. Also on record: endogenous in cells; host or cells: HEK293T wild-type and CRBN-knockout. As to conditions: 6 h. The protocol: (§3) HiBiT cells were inoculated into 96‐well flat‐bottomed tissue culture plates at a density of 50 000 cells per well, followed by adding degraders into the wells using the I‐DOT dispenser. After 6 h of incubation, the cells were lysed and assayed for degradation using the Nano‐Glo HiBiT Lysis Assay System (Promega, #N3030). Luminescence signals were read using an Envision plate reader (Revvity) and the data were analyzed using GraphPad Prism 9.5 software.
(§4) The ribonucleoprotein (RNP) complex was prepared by mixing 2 µg of NLS‐Cas9‐EGFP nuclease (Novoprotein, #E379‐01A), 50 pmol of sgRNA, 10 µL of electrotransfer solution, and 50 pmol of designed donor DNA, then incubated for 10 min at room temperature. One million HEK293T cells were resuspended in 10 µL of electrotransfection solution and mixed with 10 µL of the RNP complex. Electroporation was performed using a Celetrix SP100 electroporator at 480 V. After electroporation, the cells were transferred to antibiotic‐free DMEM complete medium for overnight culture. The following day, EGFP‐positive cells were sorted using a Sony MA 900 cell sorter, plated in a 96‐well cell culture plate (Servicebio, #CCP‐96H), and cultured for 4 weeks. After this period, positive clones were screened using the Nano‐Glo HiBiT Lytic Detection system (Promega, #N3030).
On the technique in general: The HiBiT peptide binds its large partner to form an active luciferase.

Assay [10] has as its target T3, TEAD2 (Homo sapiens, UniProt Q15562).
T3 construct: endogenous in cells; host or cells: HEK293T HiBiT knock-in
In words: HiBiT degradation assay, HEK293T HiBiT-TEAD2. As to conditions: 6 h. Format: cell-based. Here is the method: as §3, §4

The target in assay [11] is T2, TEAD1. Nature of the assay: Immunoblot in wild-type / CRBN-knockout HEK293T cells and rescue experiment. Conditions: 6 h treatment. In kind it is cell-based. Also on record: endogenous in cells; host or cells: HEK293T wild-type and CRBN-knockout. Here is the method: as §1

The record followed here is article PMC12752627, “Discovery of a Potent and Selective TEAD Degrader with Durable Degradation Activity” (Advanced Science, 2025).

Read-outs that look alike come from different tables or passages of the source. Bounds are passed on as bounds.

T2 sequence (P28347 whole entry): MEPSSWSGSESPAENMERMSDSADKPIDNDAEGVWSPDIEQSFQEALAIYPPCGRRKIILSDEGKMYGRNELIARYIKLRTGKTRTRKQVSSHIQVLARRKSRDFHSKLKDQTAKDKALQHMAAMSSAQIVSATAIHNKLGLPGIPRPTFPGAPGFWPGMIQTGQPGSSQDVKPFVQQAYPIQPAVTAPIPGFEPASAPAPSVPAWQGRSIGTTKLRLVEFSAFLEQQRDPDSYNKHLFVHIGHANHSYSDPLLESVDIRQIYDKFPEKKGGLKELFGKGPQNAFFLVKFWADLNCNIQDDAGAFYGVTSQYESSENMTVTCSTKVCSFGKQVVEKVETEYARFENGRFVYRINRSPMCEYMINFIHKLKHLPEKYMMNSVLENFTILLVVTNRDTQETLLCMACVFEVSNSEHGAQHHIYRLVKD
T3 sequence (Q15562 whole entry): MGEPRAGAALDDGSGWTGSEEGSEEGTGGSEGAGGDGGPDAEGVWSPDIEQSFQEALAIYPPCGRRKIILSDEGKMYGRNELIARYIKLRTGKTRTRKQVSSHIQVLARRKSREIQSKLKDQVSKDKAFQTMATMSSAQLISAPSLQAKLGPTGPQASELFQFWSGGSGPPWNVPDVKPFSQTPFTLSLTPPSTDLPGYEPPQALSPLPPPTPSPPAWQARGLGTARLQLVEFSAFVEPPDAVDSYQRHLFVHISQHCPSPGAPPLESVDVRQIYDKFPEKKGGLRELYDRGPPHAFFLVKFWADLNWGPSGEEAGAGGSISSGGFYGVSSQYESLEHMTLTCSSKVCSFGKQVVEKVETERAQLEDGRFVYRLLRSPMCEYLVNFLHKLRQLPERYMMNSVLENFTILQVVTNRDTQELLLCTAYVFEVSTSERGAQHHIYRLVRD
T1 sequence (P28347 whole entry): as the sequence (P28347 whole entry) above
T1 sequence (Q96SW2 whole entry): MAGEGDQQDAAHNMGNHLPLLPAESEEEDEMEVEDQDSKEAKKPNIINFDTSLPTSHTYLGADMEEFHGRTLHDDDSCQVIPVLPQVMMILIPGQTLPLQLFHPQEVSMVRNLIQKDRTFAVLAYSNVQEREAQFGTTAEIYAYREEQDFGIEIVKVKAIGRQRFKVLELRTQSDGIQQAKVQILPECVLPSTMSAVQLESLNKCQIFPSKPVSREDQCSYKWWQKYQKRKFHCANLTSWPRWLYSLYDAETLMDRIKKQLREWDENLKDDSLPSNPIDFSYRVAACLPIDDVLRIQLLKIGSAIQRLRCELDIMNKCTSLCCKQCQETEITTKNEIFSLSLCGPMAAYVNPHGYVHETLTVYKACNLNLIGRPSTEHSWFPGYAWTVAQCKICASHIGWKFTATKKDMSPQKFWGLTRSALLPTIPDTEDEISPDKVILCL
T1 sequence (Q16531 2-1140 partner limits assumed): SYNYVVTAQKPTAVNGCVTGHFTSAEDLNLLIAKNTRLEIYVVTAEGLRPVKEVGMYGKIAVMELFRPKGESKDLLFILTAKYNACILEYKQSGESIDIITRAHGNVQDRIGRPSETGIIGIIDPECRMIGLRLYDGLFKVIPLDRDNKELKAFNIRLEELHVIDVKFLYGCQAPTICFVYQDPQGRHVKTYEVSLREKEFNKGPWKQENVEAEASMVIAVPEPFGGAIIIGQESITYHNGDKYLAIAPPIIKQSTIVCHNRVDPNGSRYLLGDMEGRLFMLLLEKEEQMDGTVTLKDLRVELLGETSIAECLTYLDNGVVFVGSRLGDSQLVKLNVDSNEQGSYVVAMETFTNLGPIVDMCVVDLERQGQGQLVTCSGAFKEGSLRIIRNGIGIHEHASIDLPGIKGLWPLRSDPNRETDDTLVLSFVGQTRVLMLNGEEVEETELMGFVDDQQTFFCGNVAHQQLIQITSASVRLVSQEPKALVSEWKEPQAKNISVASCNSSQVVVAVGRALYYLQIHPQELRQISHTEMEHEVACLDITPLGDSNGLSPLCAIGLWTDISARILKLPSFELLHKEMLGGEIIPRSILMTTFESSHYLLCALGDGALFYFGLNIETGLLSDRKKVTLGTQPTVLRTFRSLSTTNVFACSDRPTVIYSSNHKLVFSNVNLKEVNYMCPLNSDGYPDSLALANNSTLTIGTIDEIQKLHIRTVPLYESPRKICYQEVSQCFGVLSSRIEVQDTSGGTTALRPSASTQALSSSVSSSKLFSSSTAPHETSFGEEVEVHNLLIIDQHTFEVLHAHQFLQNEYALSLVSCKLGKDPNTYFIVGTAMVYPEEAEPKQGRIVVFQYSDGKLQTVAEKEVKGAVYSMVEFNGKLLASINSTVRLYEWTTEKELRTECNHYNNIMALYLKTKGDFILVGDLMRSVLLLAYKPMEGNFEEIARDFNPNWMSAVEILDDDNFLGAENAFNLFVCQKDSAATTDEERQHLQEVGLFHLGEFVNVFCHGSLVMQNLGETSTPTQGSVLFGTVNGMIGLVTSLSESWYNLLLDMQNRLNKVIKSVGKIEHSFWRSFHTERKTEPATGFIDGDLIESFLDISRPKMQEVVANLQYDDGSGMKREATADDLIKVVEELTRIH

As usually defined, the IC50 is the concentration at which inhibition is half-maximal. As a reminder, the DC50 is the midpoint of the concentration-degradation curve. A word on the Dmax: it is the largest share of the target that was removed. As for `CNC(=O)c1cc2c(c(F)c1-c1c(Cl)c(F)cc3c1C[C@@](CN[C@H]1CC[C@H](C(=O)N4CCC(CC5CCN(C(=O)COc6ccc(N7CCC(=O)NC7=O)c(C)c6)CC5)CC4)CC1)(c1ccccc1)O3)[C@@H](O)[C@@H](C)C2` [KG-FP-003], the Proteome-wide selectivity entry in [1] was “significantly and selectively downregulated TEAD1 protein levels”. In assay [2], the “Degradation of TEAD1 and TEAD3 by immunoblot” value was “complete degradation”. Moreover, the “TAZ protein expression by immunoblot” value in [2] is listed as “increased TAZ protein expression”. Besides, the half-inhibitory concentration (IC50) in [3] is 0.202 ± 0.014 µM; in [4] (72 h, 3-day antiproliferation, Figure 3C, read-out: IC50 (nM ± SD), MSTO-211H) it was 47 ± 5 nM; in assay [4] (wild-type, Figure 3D, read-out: MSTO-211H: WT IC50), 47 ± 5 nM; in assay [7], 0.059 ± 0.034 µM; in assay [8], 0.007 ± 0.006 µM. The “Repression of TEAD target genes after washout (qPCR)” value in assay [5] was “sustained and pronounced repression”. Besides, the “Target degradation by immunoblot” value in assay [6] (10 nM, 6 h, TEAD1-mNeonGreen NCI-H1299 cells) is reported as “significant target degradation”. Further, in [6] (100 nM, TEAD1-mNeonGreen fusion NCI-H1299 cells), the “Time to near-complete depletion of TEAD1” value is reported as not above 2 h. The DC50 was found to be 0.006 ± 0.004 µM in assay [9] and 0.068 ± 0.015 µM in assay [10]. Further, the “TEAD1 Dmax” value in assay [9] is “≈ 90%”. Also, the maximal degradation (Dmax) worked out at 93 ± 1% in [9] (HEK-293T) and 84 ± 5% in [10] (HEK-293T). Also, the “TEAD2 Dmax” value in [10] is on record as “over 80%”. In assay [11], the “TEAD degradation in CRBN-null HEK293T cells” value is given as “minimal”.
